Tested on: S. sanguis
Test: Anti-bacterial activity of bioactive glass supernates, survivors enumerated by viable counting
Assay type: cell-based
Settings: non-bioactive glass derived alkaline solution, pH 9.8
Procedure: Nutrient broth (10 ml) was added to 5 grams of particulate bioactive glass with a pore size between 355 and 500 μm, 5 grams of glass beads (not bioactive glass) with a particle size between 455 and 600 μm, and no glass beads. The resulting solutions were incubated with rotation for 1 h at 37 C. 950 μl of each supernatant was removed and added to 50 μl of an overnight culture of S. sanguis, and incubated for 1 h at 37 C. Survivors were enumerated by viable counting.

SMILES: [Na+].[OH-] [NaOH]
- kills: 40%

From patent US20040228905A1, “Anti-inflammatory and antimicrobial uses for bioactive glass compositions” (priority 1996, published 2004)
